One data set deals with CYP. Conditions: cited from earlier work.
For data set [1] the following is noted: after oral administration of imipramine; extensive metabolizers; cited from earlier work.
Data set [2] concerns the target T1, CYP2D6 (Homo sapiens, UniProt P10635). Conditions: in vivo, via inhibition of CYP2D6; cited from earlier work.
Data set [3] concerns the target T1, CYP2D6. The data set can be described thus: CYP2D6 catalyzed metabolism, Michaelis-Menten KM.
The nature of data set [4]: Human pharmacokinetics of CYP2D6 substrates (half-life, oral bioavailability, hepatic extraction).
For data set [5], the target named is T1, CYP2D6.
For data set [6] the following is noted: in vivo.
For data set [7] the following is noted: increasing dose; not observed in poor metabolizers; cited from earlier work.

The structures appear in SMILES notation. Read-outs that look alike come from different tables or passages of the source.

By Km is commonly meant the substrate concentration at which the rate is half of its maximum. What is called half-life is the time in which the quantity being followed falls by half.

T1 sequence (P10635 whole entry): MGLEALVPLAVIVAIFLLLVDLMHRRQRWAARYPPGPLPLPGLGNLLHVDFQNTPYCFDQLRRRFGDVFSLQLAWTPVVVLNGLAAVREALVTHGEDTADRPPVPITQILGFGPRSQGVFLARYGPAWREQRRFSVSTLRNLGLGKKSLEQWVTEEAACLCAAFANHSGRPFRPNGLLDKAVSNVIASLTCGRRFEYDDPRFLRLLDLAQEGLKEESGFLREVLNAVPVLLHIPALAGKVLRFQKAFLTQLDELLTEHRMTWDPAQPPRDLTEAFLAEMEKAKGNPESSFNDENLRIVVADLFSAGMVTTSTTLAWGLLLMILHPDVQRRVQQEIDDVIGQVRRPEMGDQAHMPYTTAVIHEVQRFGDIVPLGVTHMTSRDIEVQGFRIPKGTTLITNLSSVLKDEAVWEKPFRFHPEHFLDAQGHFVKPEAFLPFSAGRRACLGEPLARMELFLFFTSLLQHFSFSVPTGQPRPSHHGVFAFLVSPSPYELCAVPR

Regarding `Cc1cc(O)c2c(=O)c3c(O)cc(O)c4c5c(O)cc(O)c6c(=O)c7c(O)cc(C)c8c1c2c(c34)c(c78)c65` [hypericin], the CYP inhibitory activity result with CYP was “exhibit CYP inhibitory activity”. For `CNCCCN1c2ccccc2CCc2ccccc21` [desipramine], in data set [1], the “range of steady state plasma concentrations” value is given as 20 fold. As for `CN(C)CCCN1c2ccccc2CCc2ccccc21` [imipramine], in data set [1], the “range of steady state plasma concentrations” value is 20 fold.

As for `C=C[C@H]1C[N@@]2CC[C@H]1C[C@@H]2[C@@H](O)c1ccnc2ccc(OC)cc12` [quinidine], the “effect on metabolizer phenotype” value on CYP2D6 [2] was “converting an extensive metabolizer to the poor metabolizer phenotype”.

Regarding `O=C1CCC(=O)N1C[C@H]1CC[C@H]2CN(c3ncccn3)CCN2C1` [sunipetron, (7S,9S)-2-(2-pyrimidyl)-7-(succinamidomethyl)-prehydro-1H-pyrido-[1,2-a]pyrazine], the Km on CYP2D6 [3] (CYP2D6 substrate) is around 1 µM. Further, the human oral bioavailability in data set [4] (oral) stood at 4.6%. Regarding `O=c1c(-c2c(O)cc(O)c3c(=O)cc(-c4ccc(O)cc4)oc23)c(-c2ccc(O)cc2)oc2cc(O)cc(O)c12` [I3, II8-biapigenin], the CYP inhibitory activity entry with CYP is listed as “exhibit CYP inhibitory activity”. As to `C[C@@H]([C@@H](O)c1ccc(O)cc1)N1CCC(O)(c2ccccc2)CC1` [(1S,2S)-1-(4-hydroxyphenyl)-2-(4-hydroxy-4-phenylpiperidin-1-yl)-1-propanol], on CYP2D6 [3] (human), the Km was 3 to 4 µM. Besides, the half-life in data set [4] (in vivo) lay in the range of 3 to 4 h. Turning to `COc1ccccc1CN[C@H]1CCCN[C@H]1c1ccccc1` [(2S,3S)-2-phenyl-3-(2-methoxyphenyl)-methylaminopiperidine], the Michaelis constant (Km) at CYP2D6 [5] was around 1 µM. In data set [6] (human), the human half-life entry is reported as “about 4.7 hours”. In data set [6] (human, po), this compound came in with a human oral bioavailability of 1.0%. In addition, the hepatic extraction result in data set [6] (iv) is recorded as “exceeds 90%”. Consider `Fc1ccc([C@@H]2CCNC[C@H]2COc2ccc3c(c2)OCO3)cc1` [paroxetine], for which the dose-exposure relationship result in data set [7] is “supraproportional”. For the compound `O=c1c(O)c(-c2ccc(O)c(O)c2)oc2cc(O)cc(O)c12` [quercetin], in the data set with CYP, the CYP inhibitory activity entry was “exhibit CYP inhibitory activity”.

The values are drawn from patent publication US20040018253A1, “Use of CYP2D6 inhibitors in combination therapies” (priority 1999, published 2004).
